Test results reported in patent US20100010092A1, “USE OF MODAFINIL TO TREAT RESTLESS LEG SYNDROME” (Arless Ltd., priority 2006, published 2010).
Where a name gives a salt, the structure may show the parent alone.

Columns and labels:
[1] = cited from earlier work; for share of trough concentration (Cminss) of circulating modafinil: after once daily dosing of racemic modafinil
[2] = test system: restless leg syndrome and PLMS, and Primary snoring; assay: Overnight polysomnographic sleep study, evening dosage; format: in vivo, human; conditions: oral 50 mg in the evening, versus baseline without drug
Text: A non-obese subject with no outstanding medical history other than restless leg syndrome and PLMS of 6 years duration, and Primary snoring, 60 kg, was entered into an overnight sleep study in a specialist hospital sleep disorder center. […] Snoring as represented by the Snore Index was reduced 70%.

[3] = doses up to 400 mg per day, given as a single dose; cited from earlier work
[4] = test system: PLMD and RLS and Primary snoring; assay: Case reports: patient with sleep study diagnosed PLMD, RLS and Primary snoring taking the drug orally; format: in vivo, human; conditions: for RLS and PLMD symptoms on chronic use: symptoms returned immediately after stopping
Description: An otherwise healthy non-obese person with sleep study diagnosed PLMD and RLS and Primary snoring without apnea, 61 kg, took Requip, ropinirole HCL from 0.25 to 0.75 mg orally per day for PLMS and RLS for a period of over 8-12 months. PLM were severe enough to occasionally awaken them from sleep. […] Multiple attempts at gaining relief were made over a period of 8-12 months. These attempts failed. […]

RLS = conditions: moderate to severe RLS; cited from earlier work
[5] = 50 mg by mouth 1-3 hours prior to bedtime
[6] = 50 mg by mouth between 8 am and noon
[7] = 50 mg or 25 mg by mouth in the morning

## NC(=O)C[S+]([O-])C(c1ccccc1)c1ccccc1 (single isomer, unassigned) [d-isomer]
[1]
  share of trough concentration (Cminss) of circulating modafinil: 10%

## NC(=O)C[S+]([O-])C(c1ccccc1)c1ccccc1 (racemic) [modafinil, 2-[(diphenylmethyl)sulfiny]acetamide]
[2]
  PLMs during sleep: not detected
  reduction of snoring as represented by the Snore Index: 70%
[3]
  tolerability: well tolerated
[4]; 25 mg as needed, evening dosage
  symptoms: either completely relieved or greatly diminished
[4]; 25 mg by mouth in the morning
  removal of symptoms at lower dosage: failed to entirely remove symptoms
[4]; [5]
  limb movements and the urge to move the limb and associated sensations while awake: greatly reduced
  time until limb movements and urge were greatly reduced: approximately 90 minutes
[4]; [6]
  leg jerks during sleep observed by partner: no leg jerks during sleep were observed
  limb movements and snoring while asleep noticed by partner: absence of limb movements and snoring
  restfulness noted by patient: increased restfulness
  urge to move legs in the evenings: No urge to move legs in the evenings occurred
[4]; [7]
  limb movements and the urge to move the limb and associated sensations while awake: greatly reduced
  snoring noted by sleep partner: marked decrease in snoring
[4]; 100 mg by mouth in the morning
  leg jerks during sleep observed by partner: no leg jerks during sleep were observed
  limb movements and snoring while asleep noticed by partner: absence of limb movements and snoring
  restfulness noted by patient: increased restfulness
  urge to move legs in the evenings: No urge to move legs in the evenings occurred
[4]; evening dosage, every day for periods of 5 to 7 days
  RLS and PLMD symptoms on chronic use: periods free from RLS and PLMD symptoms
[4]; morning dosage 50 or 25 mg, every day for periods of up to 11 days
  RLS and PLMD symptoms on chronic use: periods free from RLS and PLMD symptoms

## CCCN(CCC)CCc1cccc2c1CC(=O)N2 [Requip, ropinirole HCL]
[4]; ropinirole HCL 0.25 to 0.75 mg orally per day, over 8-12 months
  PLMS according to the partner: PLMS continued
[4]; ropinirole HCL 0.25 to 0.75 mg orally per day, over 8-12 months, person
  relief of RLS/PLMS symptoms: did not relieve symptoms
RLS
  additional complications reported by patients: constipation and daytime sleepiness

## NC(=O)C[S@@+]([O-])C(c1ccccc1)c1ccccc1 [I-isomer, r-2-((diphenylmethyl)sulfinyl)-acetamide]
[1]
  share of trough concentration (Cminss) of circulating modafinil: 90%
[1]; taken orally, steady state
  total exposure at steady state relative to that for the d-isomer: approximately three
